Measurements: the supplement of paper PMC10307832

Tests used:
Test in all cases: relative viability (nuclei count vs DMSO), 5 days (fraction); higher = more cells survive
[1] = compound: Nc1nc2[nH]cc(CCc3ccc(C(=O)N[C@@H](CCC(=O)O)C(=O)O)cc3)c2c(=O)[nH]1 [Pemetrexed] + Cc1cc(Nc2cc(N3CCN(C)CC3)nc(Sc3ccc(NC(=O)C4CC4)cc3)n2)n[nH]1 [Tozasertib] (partner 0.1 µM)
How it was run: (§1)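 Relative viability equals treated-well nuclei counts divided by vehicle-well nuclei counts. Counts came from 4× images of lung cancer cell lines grown in 1536-well plates for 5 days after pin-tool dosing on the day after seeding. Dosing used one drug alone or a fixed anchor-drug dose plus five library-drug doses (not always all listed) in √10 steps, and values are medians of duplicate plates.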

[2] = compound: Nc1nc2[nH]cc(CCc3ccc(C(=O)N[C@@H](CCC(=O)O)C(=O)O)cc3)c2c(=O)[nH]1 [Pemetrexed] + CS(=O)(=O)CCNCc1ccc(-c2ccc3ncnc(Nc4ccc(OCc5cccc(F)c5)c(Cl)c4)c3c2)o1 [Lapatinib] (partner 2 µM)
How it was run: as §1

[3] = compound: CC[C@H](Nc1ncnc2[nH]cnc12)c1nc2cccc(F)c2c(=O)n1-c1ccccc1 [Idelalisib] + O=C(c1cc(Cc2n[nH]c(=O)c3ccccc23)ccc1F)N1CCN(C(=O)C2CC2)CC1 [Olaparib] (partner 8 µM)
How it was run: as §1

[4] = compound: Nc1nc2[nH]cc(CCc3ccc(C(=O)N[C@@H](CCC(=O)O)C(=O)O)cc3)c2c(=O)[nH]1 [Pemetrexed] + COc1cc2c(Oc3ccc(NC(=O)C4(C(=O)Nc5ccc(F)cc5)CC4)cc3F)ccnc2cc1OCCCN1CCOCC1 [Foretinib] (partner 0.25 µM)
How it was run: as §1

Cell Line | relative viability ([1]; first compound 0.002 µM) | relative viability ([1]; first compound 0.006325 µM) | relative viability ([1]; first compound 0.02 µM) | relative viability ([1]; first compound 0.06325 µM) | relative viability ([1]; first compound 0.2 µM) | relative viability ([2]; first compound 0.002 µM) | relative viability ([2]; first compound 0.006325 µM) | relative viability ([2]; first compound 0.02 µM) | relative viability ([2]; first compound 0.06325 µM) | relative viability ([2]; first compound 0.2 µM) | relative viability ([3]; first compound 0.04 µM) | relative viability ([3]; first compound 0.1265 µM) | relative viability ([3]; first compound 0.4 µM) | relative viability ([3]; first compound 1.265 µM) | relative viability ([3]; first compound 4 µM) | relative viability ([4]; first compound 0.002 µM) | relative viability ([4]; first compound 0.006325 µM) | relative viability ([4]; first compound 0.02 µM) | relative viability ([4]; first compound 0.06325 µM) | relative viability ([4]; first compound 0.2 µM)
NCI-H2170 | 0.714 | 0.644 | 0.636 | 0.829 | 0.602 | 0.302 | 0.282 | 0.268 | 0.293 | 0.297 | 0.606 | 0.679 | 0.643 | 0.558 | 0.515 | 0.918 | 1.02 | 0.999 | 1 | 1.02
NCI-H2228 | 0.318 | – | 0.266 | 0.209 | 0.173 | 0.928 | 0.854 | 1.4 | 0.784 | 0.379 | 0.911 | 0.985 | 0.589 | 0.871 | 0.538 | 0.71 | – | 0.993 | 0.633 | 0.302
NCI-H2347 | 0.337 | 0.516 | 0.595 | 0.589 | 0.356 | 0.658 | 0.954 | 0.904 | 0.867 | 0.565 | 0.591 | 0.659 | 0.528 | 0.644 | 0.464 | 0.841 | 1.06 | 1.19 | 0.739 | 0.558
NCI-H2405 | 0.75 | 0.738 | 0.832 | 0.778 | 0.694 | 1.13 | 1.05 | 1.14 | 1.04 | 1.07 | 0.893 | 0.885 | 0.76 | 0.868 | 0.836 | 1.06 | 1.03 | 1.09 | 1.03 | 1.08
NCI-H3122 | 0.404 | 0.371 | 0.367 | 0.198 | 0.118 | 1.01 | 1.02 | 1.02 | 0.97 | 0.847 | 0.611 | 0.626 | 0.669 | 0.584 | 0.49 | 0.931 | 0.972 | 0.973 | 0.973 | 0.72
PC-3 [JPC-3] | 0.82 | 0.939 | 0.895 | 0.878 | 0.861 | 0.423 | 0.502 | 0.501 | 0.471 | 0.451 | 1.09 | 1.23 | 1.08 | 1.13 | 0.953 | 0.93 | 1.05 | 1.02 | 1.05 | 1.01
PC-14 | 0.661 | 0.564 | 0.676 | 0.416 | 0.222 | 0.194 | 0.271 | 0.38 | 0.291 | 0.223 | 0.268 | 0.232 | 0.239 | 0.384 | 0.297 | 0.894 | 0.927 | 1 | 0.611 | 0.258
RERF-LC-KJ | 0.52 | 0.477 | 0.526 | 0.475 | 0.325 | 0.739 | 0.835 | 0.842 | 0.892 | 0.692 | 0.873 | 0.941 | 0.864 | 0.892 | 0.814 | 0.84 | 0.84 | 0.866 | 0.857 | 0.749
SK-LU-1 | 0.303 | 0.324 | 0.374 | 0.378 | 0.333 | 0.772 | 0.853 | 0.96 | 0.804 | 0.695 | 0.584 | 0.492 | 0.41 | 0.424 | 0.464 | 0.71 | 0.888 | 0.923 | 0.783 | 0.801
SK-MES-1 | 0.891 | 0.843 | 0.879 | 0.843 | 0.817 | 0.473 | 0.423 | 0.469 | 0.453 | 0.457 | 0.736 | 0.711 | 0.679 | 0.636 | 0.448 | 0.883 | 0.83 | 1.04 | 0.907 | 0.868
SW 1573 | 0.241 | 0.197 | 0.201 | 0.139 | 0.178 | 1.12 | 1.11 | 1.19 | 1.07 | 1.12 | 0.465 | 0.426 | 0.364 | 0.521 | 0.431 | 0.909 | 0.808 | 0.951 | 0.979 | 0.855
